Data reported in patent US20240108725A1, “METHOD FOR TREATING CANCER AND SYSTEM FOR SAME” (OTSUKA MEDICAL DEVICES CO., LTD, priority 2020, published 2024).

Tested on: TL-Om1 cells
Experiment: Rate of dead cells after 5-ALA PDT in erythrocyte solution, TL-Om1 cells, Example 3
Format: cell-based, human
Method: C6 cells or human leukemia cell line TL-Oml cells were cultured in 2.5% FBS/F-12K medium (C6 cells) or 10% FBS/RPMI1640 (TL-Oml cells) supplemented with 5-ALA to a final concentration of 0.125 to 0.5 mM in a 5% CO2 incubator at 37° C. for 4 hours. After the culture, the cells were removed with a 0.25% trypsin-EDTA solution, and the collected cells were adjusted to 2×10^7 cells/mL with an erythrocyte solution (a solution in which erythrocytes and PBS were mixed at a ratio of 45:55). The cell suspension thus prepared was injected into a Tygon tube (inner diameter: 0.79 mm), wrapped around a light irradiator, and irradiated with light having a wavelength of 630 nm so that the irradiation energy density was 0.5 to 500 J/cm^2. After the irradiation, an ammonium chloride solution was added to the cell suspension to hemolyze the erythrocytes. Cells before the PDT treatment, after the PDT treatment, and after 24-hour culture were stained with the FITC Annexin V Apoptosis Detection Kit I and the rate of dead cells was analyzed with a flow cytometer.

[1] = 5-ALA 0.125 mM, 10 J/cm^2, 24 hours after irradiation
[2] = 5-ALA 0.125 mM, 50 J/cm^2, 24 hours after irradiation
[3] = 5-ALA 0.125 mM, 100 J/cm^2, 24 hours after irradiation
[4] = 5-ALA 0.125 mM, 200 J/cm^2, 24 hours after irradiation
[5] = 5-ALA 0.125 mM, 300 J/cm^2, 24 hours after irradiation
[6] = 5-ALA 0.125 mM, 400 J/cm^2, 24 hours after irradiation
[7] = 5-ALA 0.125 mM, 500 J/cm^2, 24 hours after irradiation
[8] = 5-ALA 0.25 mM, 1 J/cm^2, 24 hours after irradiation
[9] = 5-ALA 0.25 mM, 1 J/cm^2, immediately after irradiation
[10] = 5-ALA 0.25 mM, 2.5 J/cm^2, 24 hours after irradiation
[11] = 5-ALA 0.25 mM, 2.5 J/cm^2, immediately after irradiation
[12] = 5-ALA 0.25 mM, 5 J/cm^2, 24 hours after irradiation
[13] = 5-ALA 0.25 mM, 5 J/cm^2, immediately after irradiation
[14] = 5-ALA 0.25 mM, 10 J/cm^2, 24 hours after irradiation
[15] = 5-ALA 0.25 mM, 10 J/cm^2, immediately after irradiation
[16] = 5-ALA 0.25 mM, 50 J/cm^2, 24 hours after irradiation
[17] = 5-ALA 0.25 mM, 50 J/cm^2, immediately after irradiation
[18] = 5-ALA 0.25 mM, 100 J/cm^2, 24 hours after irradiation
[19] = 5-ALA 0.25 mM, 100 J/cm^2, immediately after irradiation
[20] = 5-ALA 0.25 mM, 200 J/cm^2, 24 hours after irradiation
[21] = 5-ALA 0.25 mM, 200 J/cm^2, immediately after irradiation
[22] = 5-ALA 0.25 mM, 300 J/cm^2, 24 hours after irradiation
[23] = 5-ALA 0.25 mM, 300 J/cm^2, immediately after irradiation
[24] = 5-ALA 0.25 mM, 400 J/cm^2, 24 hours after irradiation
[25] = 5-ALA 0.25 mM, 400 J/cm^2, immediately after irradiation
[26] = 5-ALA 0.25 mM, 500 J/cm^2, 24 hours after irradiation
[27] = 5-ALA 0.25 mM, 500 J/cm^2, immediately after irradiation
[28] = 5-ALA 0.5 mM, 1 J/cm^2, immediately after irradiation
[29] = 5-ALA 0.5 mM, 2.5 J/cm^2, immediately after irradiation
[30] = 5-ALA 0.5 mM, 5 J/cm^2, immediately after irradiation
[31] = 5-ALA 0.5 mM, 10 J/cm^2, immediately after irradiation
[32] = 5-ALA 0.5 mM, 50 J/cm^2, immediately after irradiation
[33] = 5-ALA 0.5 mM, 100 J/cm^2, immediately after irradiation
[34] = 5-ALA 0.5 mM, 200 J/cm^2, immediately after irradiation
[35] = 5-ALA 0.5 mM, 300 J/cm^2, immediately after irradiation
[36] = 5-ALA 0.5 mM, 400 J/cm^2, immediately after irradiation
[37] = 5-ALA 0.5 mM, 500 J/cm^2, immediately after irradiation

How did the “Annexin V+/PI+ (%)” value [1] turn out when `NCC(=O)CCC(=O)O` [5-ALA, 5-aminolevulinic acid] was run?
The value was 6%.

And the “Annexin V+/PI− (%)” value [1]?
The value was 4%.

And the “Annexin V+/PI+ (%)” value [2]?
The value was 6%.

What about the “Annexin V+/PI− (%)” value [2] of the same compound?
Its value is 4%.

What about the “Annexin V+/PI+ (%)” value [3] of the same compound?
Its value is 6%.

What about the “Annexin V+/PI− (%)” value [3] of the same compound?
The value was 5%.

What about the “Annexin V+/PI+ (%)” value [4] of the same compound?
The value was 7%.

And the “Annexin V+/PI− (%)” value [4]?
The value was 4%.

What about the “Annexin V+/PI+ (%)” value [5] of the same compound?
The value was 9%.

And the “Annexin V+/PI− (%)” value [5]?
The value was 4%.

And the “Annexin V+/PI+ (%)” value [6]?
The value was 12%.

And the “Annexin V+/PI− (%)” value [6]?
Its value is 8%.

What about the “Annexin V+/PI+ (%)” value [7] of the same compound?
Its value is 33%.

And the “Annexin V+/PI− (%)” value [7]?
Its value is 14%.

And the “Annexin V+/PI+ (%)” value [8]?
Its value is 4%.

And the “Annexin V+/PI− (%)” value [8]?
The value was 6%.

What about the “Annexin V−/PI− (%)” value [8] of the same compound?
The value was 90%.

And the “Annexin V+/PI+ (%)” value [9]?
The value was 8%.

And the “Annexin V+/PI− (%)” value [9]?
Its value is 4%.

And the “Annexin V−/PI− (%)” value [9]?
The value was 88%.

What about the “Annexin V+/PI+ (%)” value [10] of the same compound?
Its value is 4%.

And the “Annexin V+/PI− (%)” value [10]?
Its value is 7%.

What about the “Annexin V−/PI− (%)” value [10] of the same compound?
The value was 89%.

What about the “Annexin V+/PI+ (%)” value [11] of the same compound?
Its value is 6%.

And the “Annexin V+/PI− (%)” value [11]?
Its value is 4%.

What about the “Annexin V−/PI− (%)” value [11] of the same compound?
The value was 89%.

And the “Annexin V+/PI+ (%)” value [12]?
Its value is 4%.

And the “Annexin V+/PI− (%)” value [12]?
Its value is 8%.

What about the “Annexin V−/PI− (%)” value [12] of the same compound?
The value was 88%.

What about the “Annexin V+/PI+ (%)” value [13] of the same compound?
Its value is 7%.

And the “Annexin V+/PI− (%)” value [13]?
The value was 4%.

And the “Annexin V−/PI− (%)” value [13]?
Its value is 88%.

What about the “Annexin V+/PI+ (%)” value [14] of the same compound?
The value was 6%.

And the “Annexin V+/PI− (%)” value [14]?
Its value is 8%.

What about the “Annexin V−/PI− (%)” value [14] of the same compound?
Its value is 86%.

What about the “Annexin V+/PI+ (%)” value [15] of the same compound?
The value was 6%.

What about the “Annexin V+/PI− (%)” value [15] of the same compound?
Its value is 4%.

What about the “Annexin V−/PI− (%)” value [15] of the same compound?
The value was 90%.

What about the “Annexin V+/PI+ (%)” value [16] of the same compound?
Its value is 9%.

What about the “Annexin V+/PI− (%)” value [16] of the same compound?
The value was 9%.

And the “Annexin V−/PI− (%)” value [16]?
The value was 83%.

And the “Annexin V+/PI+ (%)” value [17]?
The value was 8%.

And the “Annexin V+/PI− (%)” value [17]?
Its value is 4%.

What about the “Annexin V−/PI− (%)” value [17] of the same compound?
Its value is 87%.

And the “Annexin V+/PI+ (%)” value [18]?
Its value is 10%.

And the “Annexin V+/PI− (%)” value [18]?
Its value is 8%.

What about the “Annexin V−/PI− (%)” value [18] of the same compound?
The value was 83%.

What about the “Annexin V+/PI+ (%)” value [19] of the same compound?
Its value is 10%.

What about the “Annexin V+/PI− (%)” value [19] of the same compound?
The value was 4%.

And the “Annexin V−/PI− (%)” value [19]?
Its value is 85%.

And the “Annexin V+/PI+ (%)” value [20]?
Its value is 11%.

And the “Annexin V+/PI− (%)” value [20]?
The value was 10%.

And the “Annexin V−/PI− (%)” value [20]?
Its value is 79%.

What about the “Annexin V+/PI+ (%)” value [21] of the same compound?
The value was 12%.

What about the “Annexin V+/PI− (%)” value [21] of the same compound?
The value was 5%.

And the “Annexin V−/PI− (%)” value [21]?
Its value is 82%.

And the “Annexin V+/PI+ (%)” value [22]?
The value was 14%.

What about the “Annexin V+/PI− (%)” value [22] of the same compound?
The value was 11%.

What about the “Annexin V−/PI− (%)” value [22] of the same compound?
Its value is 75%.

And the “Annexin V+/PI+ (%)” value [23]?
The value was 13%.

What about the “Annexin V+/PI− (%)” value [23] of the same compound?
Its value is 4%.

And the “Annexin V−/PI− (%)” value [23]?
Its value is 82%.

And the “Annexin V+/PI+ (%)” value [24]?
The value was 34%.

And the “Annexin V+/PI− (%)” value [24]?
Its value is 16%.

And the “Annexin V−/PI− (%)” value [24]?
The value was 50%.

What about the “Annexin V+/PI+ (%)” value [25] of the same compound?
The value was 18%.

What about the “Annexin V+/PI− (%)” value [25] of the same compound?
Its value is 4%.

And the “Annexin V−/PI− (%)” value [25]?
The value was 77%.

And the “Annexin V+/PI+ (%)” value [26]?
The value was 72%.

And the “Annexin V+/PI− (%)” value [26]?
The value was 21%.

And the “Annexin V−/PI− (%)” value [26]?
The value was 7%.

What about the “Annexin V+/PI+ (%)” value [27] of the same compound?
Its value is 33%.

And the “Annexin V+/PI− (%)” value [27]?
The value was 3%.

And the “Annexin V−/PI− (%)” value [27]?
The value was 63%.

And the “Annexin V+/PI+ (%)” value [28]?
The value was 7%.

And the “Annexin V+/PI− (%)” value [28]?
Its value is 3%.

And the “Annexin V−/PI− (%)” value [28]?
The value was 89%.

And the “Annexin V+/PI+ (%)” value [29]?
The value was 5%.

And the “Annexin V+/PI− (%)” value [29]?
The value was 2%.

What about the “Annexin V−/PI− (%)” value [29] of the same compound?
The value was 92%.

What about the “Annexin V+/PI+ (%)” value [30] of the same compound?
The value was 7%.

What about the “Annexin V+/PI− (%)” value [30] of the same compound?
Its value is 3%.

And the “Annexin V−/PI− (%)” value [30]?
Its value is 90%.

And the “Annexin V+/PI− (%)” value [31]?
Its value is 3%.

What about the “Annexin V−/PI− (%)” value [31] of the same compound?
The value was 89%.

And the “Annexin V+/PI− (%)” value [32]?
The value was 3%.

What about the “Annexin V−/PI− (%)” value [32] of the same compound?
Its value is 83%.

What about the “Annexin V+/PI− (%)” value [33] of the same compound?
Its value is 3%.

What about the “Annexin V−/PI− (%)” value [33] of the same compound?
Its value is 80%.

And the “Annexin V+/PI− (%)” value [34]?
The value was 3%.

What about the “Annexin V−/PI− (%)” value [34] of the same compound?
Its value is 78%.

What about the “Annexin V+/PI+ (%)” value [35] of the same compound?
The value was 23%.

And the “Annexin V+/PI− (%)” value [35]?
Its value is 3%.

What about the “Annexin V−/PI− (%)” value [35] of the same compound?
The value was 72%.

And the “Annexin V+/PI+ (%)” value [36]?
The value was 32%.

And the “Annexin V+/PI− (%)” value [36]?
Its value is 3%.

And the “Annexin V−/PI− (%)” value [36]?
The value was 61%.

What about the “Annexin V+/PI+ (%)” value [37] of the same compound?
The value was 62%.

And the “Annexin V+/PI− (%)” value [37]?
The value was 2%.

What about the “Annexin V−/PI− (%)” value [37] of the same compound?
Its value is 30%.
